Source: paper doi:10.1101/2021.04.29.441652v1 (biorxiv, 2021)

Each molecule was assayed against human σ2 receptor (TMEM97) (Homo sapiens, UniProt Q5BJF2) (assay: biochemical). Settings: read-out: % of control remaining.
Format: Expi293 membranes

Chain of human σ2 receptor (TMEM97) (Q5BJF2 whole entry): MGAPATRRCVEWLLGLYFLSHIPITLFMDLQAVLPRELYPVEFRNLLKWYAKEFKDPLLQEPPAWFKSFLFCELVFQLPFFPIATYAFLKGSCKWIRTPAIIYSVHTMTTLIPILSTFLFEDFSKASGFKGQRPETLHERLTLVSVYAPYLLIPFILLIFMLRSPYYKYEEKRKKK

Row | SMILES | remaining activity at 1 µM
1 | C[C@@H](CCNC(=O)C1(CN(C)C)CC1)NC(=O)c1ncccc1O [ZINC001078073018] | 111%
2 | CCc1cc(N2CCC[C@@H](N[C@H](C)c3ccc(OC)c(Cl)c3)C2)ncn1 [ZINC000536865847] | 36.3%
3 | Cc1c(CNC(=O)C(=O)N2CC[C@@H](C3CCN(C)CC3)C2)cnn1C [ZINC000287105318] | 117%
4 | O=C([C@@H]1CCc2nnc(O)n2C1)N1CC(CNC(=O)C(F)(F)F)C1 [ZINC001363211634] | 78.6%
5 | CN(C/C=C\c1ccc(F)c(F)c1)[C@@H]1COC[C@@H]1O [ZINC000348635286] | 105%
6 | CCc1nnsc1C(=O)NCC1CN(C(=O)[C@H]2CCCN2C)C1 [ZINC001003018745] | 85.7%
7 | C[C@H](C(=O)N[C@H]1C[C@H]2CC[C@@H]1N2CCn1cccn1)c1ccccc1F [ZINC001096194954] | 118%
8 | Cc1ccc([N+](=O)[O-])cc1[C@H](C)N1C[C@H]2CCC[C@@H]2C1 [ZINC000182842742] | 36.1%
9 | CCc1ccc([C@@H]2CCN(Cc3cc(=O)n4c(C)cccc4n3)C2)cc1 [ZINC000433044150] | 5%
10 | C[C@@H]1C[C@H](NC(=O)C(=O)N(C)Cc2c(Cl)cccc2Cl)CN1C1CC1 [ZINC000574318236] | 100%
11 | O=C(CN1CC[C@]2(CCOC2)C1)N[C@@H](Cc1ccccc1)c1ccccc1 [ZINC000153400973] | 99.4%
12 | CCc1nn(C)c(Cl)c1C(=O)N1CC[C@@H](N2CCNCC2)C1 [ZINC000286782676] | 132%
13 | N[C@@H](CC(=O)Nc1cccc(C(=O)N2CCCC2)c1)c1ccccc1 [ZINC000237909071] | 89%
14 | C[C@@H]1CN(CC(=O)NCCCO[C@@H](C)c2ccccc2)[C@H](C)CCO1 [ZINC001655120594] | 112%
15 | CCN1CCN(CCNC(=S)N[C@H](C)c2cccs2)CC1 [ZINC000726467110] | 79.5%
16 | Fc1ccc(C2OCCO2)c(Cl)c1CNC1CC2(CCC2)C1 [ZINC000846106280] | 43.6%
17 | O=C(Nc1ccc2ncnn2c1)[C@]1(O)CCN(Cc2ccccc2)C1 [ZINC000655168559] | 97.6%
18 | Cc1cc(C(=O)NC[C@@H]2CCN(CC(=O)Nc3cnccn3)C2)on1 [ZINC001028403773] | 109%
19 | Cc1cc(CN2CC[C@H]2Cc2ccccc2)ccc1-n1cncn1 [ZINC000353995714] | 13.2%
20 | CCc1cccc(C)c1NC(=O)CN1C[C@@H](N2CCCC2)C[C@H]1C [ZINC000285725404] | 115%
21 | Cc1ccc(C2=NO[C@@H](CNC(=O)N3CC[C@H](N4CCCC4)C3)C2)cc1C [ZINC000802379169] | 89.7%
22 | O[C@H]1c2ccccc2C[C@H]1N1Cc2cccc(Cl)c2C1 [ZINC000287374567] | 114%
23 | Cc1ccc(C[C@H](CO)NCc2cccc(F)c2)cc1C [ZINC000453607577] | 86.8%
24 | O=C(CN1CC[C@@H]2CCC[C@@H]21)Nc1cccc(I)c1 [ZINC000426526480] | 92%
25 | CCc1ccc([C@@H](C)N[C@@H]2CCCN(C(=O)CCC(F)(F)F)C2)s1 [ZINC000574285278] | 76.2%
26 | CS[C@H](CO)[C@@H](C)NC(=O)N[C@@H]1CCN(C2CCN(C)CC2)C1 [ZINC000377772869] | 100%

Row | SMILES | remaining activity at 1 µM
27 | Cc1cc(C)nc(C(=O)NCCC2CCN(CCOC(C)C)CC2)c1 [ZINC001419404744] | 19.6%
28 | COc1ccnc(N2CCN([C@H](C)CCSc3ccccc3)CC2)n1 [ZINC000473272986] | 66.5%
29 | O=C(N[C@H]1CCOC2(CCC2)C1)N1CCC(N2CC[C@@H](O)C2)CC1 [ZINC000664479370] | 103%
30 | C[C@H](Cn1ncc2ccccc2c1=O)N[C@@H](C)Cc1ccc2c(c1)CCCC2 [ZINC000657934399] | 13.3%
31 | OC1(CN2CC(Cc3ccccc3C(F)(F)F)C2)CCC1 [ZINC001320149247] | 14.7%
32 | CC(C)OCCN1CCC(NC(=O)[C@@H]2CCc3nncn3C2)CC1 [ZINC000556484619] | 112%
33 | O[C@@H]1CC[C@@H]2CN(Cc3cccc4c[nH]nc34)C[C@@H]21 [ZINC000582751592] | 72.4%
34 | C[C@@H]1CN([C@H]2CCc3ccccc3NC2=O)C[C@H]1NC(=O)/C=C\C(C)(C)C [ZINC001206651458] | 109%
35 | Cc1ccc(N2CCN(C(=O)C(=O)N[C@@H]3CN(C4CC4)C[C@@H]3C)CC2)cc1 [ZINC000809405032] | 99.4%
36 | CCCN1CC[C@H](NS(=O)(=O)c2ccc(C(=O)OC)cc2F)C1 [ZINC000595353335] | 97.7%
37 | C[C@H]1CCN(CC#Cc2cccc(Cl)c2)[C@H]1CO [ZINC000248917461] | 103%
38 | CN1CCN(CCCCNC(=O)C(=O)N2CCSCC2)CC1 [ZINC000555574173] | 107%
39 | CC1CCC(N2CCN(CCOC(C)C)CC2)CC1 (stereo not drawn) [ZINC000115566238] | 18.2%
40 | CN(C[C@H]1CCCN1C)C(=O)[C@]1(C)CC(c2ccccc2Cl)=NO1 [ZINC001362573982] | 94.8%
41 | Cn1ccc(N2CC[C@@H](N[C@H]3CCN(C(=O)CC4CCC4)C3)C2=O)n1 [ZINC001018665695] | 120%
42 | COC(=O)C[C@H]1CCCN1C[C@@H](O)Cc1cccc(Cl)c1 [ZINC000287581634] | 111%
43 | NC(=O)C1(N2CCCCC2)CCN(CC(=O)NCC2CCC2)CC1 [ZINC000880249690] | 113%
44 | C[C@H](NC[C@H](CO)Cc1c(F)cccc1Cl)c1ccco1 [ZINC000483826940] | 22.5%
45 | C[C@H](C(=O)NCC1CCCCC1)N1CCC[C@H](N2CCCC2=O)CC1 [ZINC000334024070] | 111%
46 | C=C(C)CN/C(N)=N/[C@H]1C[C@H](c2cccc(F)c2)C1 [ZINC000262856881] | 6.4%
47 | FC(F)(F)c1ccnc([C@H]2CCN(CCCc3ccc4c(c3)CCO4)C2)n1 [ZINC001308961074] | 2.4%
48 | Cc1ncc(CNC[C@@H]2CN(C(=O)c3cn(C)cn3)CCO2)cn1 [ZINC001051553588] | 105%
49 | Cc1c(F)cccc1C(=O)N[C@@H]1CN(CCC2CCCCC2)C[C@H]1O [ZINC001077034834] | 16.5%
50 | C[C@@H](O)CN1CC[C@H](C2CCN(C(=O)CN3CCOCC3)CC2)C1 [ZINC001039123057] | 115%
51 | CCN1CC[C@@H](NC(=O)c2ccnc(-n3cncn3)c2)C[C@@H]1C [ZINC000948091407] | 112%
52 | CC(C)CO[C@H]1CCN([C@@H](C)C(=O)N(C)Cc2ccc(Br)cc2)C1 [ZINC000468894194] | 35.4%

Row | SMILES | remaining activity at 1 µM
53 | C[C@H](CCNC(=O)N1CCO[C@H]([C@@H]2CCCO2)C1)N1CCCCC1 [ZINC000182663590] | 98%
54 | C[C@@H](C(=O)NCc1ccc(Cl)cc1)N1CCC(C(C)(C)C)CC1 [ZINC001169307444] | 21.2%
55 | C[C@@H](NC(=O)c1cnnn1C)C1CN(C(=O)C23CCCN2CCC3)C1 [ZINC001006004942] | 126%
56 | Cc1cccc2sc(N3CCN(CCO)[C@H](C)C3)nc12 [ZINC000893277758] | 95.1%
57 | CC[C@@H](C)NC(=O)[C@@H](C)N1CCC(c2c[nH]c3ccccc23)CC1 [ZINC000073649189] | 74.2%
58 | CCO[C@@H](CC(=O)N1CCCN(C2CCCC2)CC1)C1=CCCC1 [ZINC000362611503] | 27.8%
59 | NC[C@@H](NC(=O)C(=O)NCCN1CCSCC1)C1CCCC1 [ZINC000420063417] | 94.1%
60 | Cc1ccccc1[C@H](OC[C@H](O)CN1Cc2ccccc2C1)c1ccccc1 [ZINC000518003593] | 79.8%
61 | C[C@H]1CN/C(=N/Cc2cccc(OCc3ccccc3)c2)N1 [ZINC000261552362] | 56.1%
62 | COC(=O)[C@@H]1CCN([C@H](C)C(=O)NCc2ccccc2C)[C@@H]1C [ZINC000347007006] | 108%
63 | C[C@H]1CCCN1CC(=O)N(C)[C@H]1CCN(C(=O)C2CCOCC2)C1 [ZINC000936344871] | 82.7%
64 | Cc1cc(C(=O)N2CCCO[C@@H](CNCC(=O)NC3CC3)C2)n(C)n1 [ZINC001199969207] | 124%
65 | COC(=O)c1cccc(S(=O)(=O)N2CC[C@@H](N3CCCC3)[C@@H]2C)c1 [ZINC000286616311] | 75%
66 | Cc1ccnc2nc(C(=O)NCC3CN(CCCC4CCC4)C3)nn12 [ZINC001032169623] | 92.8%
67 | CN(C(=O)c1cccnn1)C1CN(C(=O)[C@H]2CCC[C@H]3CCCN32)C1 [ZINC000955102158] | 111%
68 | C[C@]1(c2ccccc2)CCCN(CC(=O)N2CCc3ccccc32)C1 [ZINC000500192494] | 69.3%
69 | CCC1(C(=O)NCC[C@@H]2CCN(Cc3nccn3C)C2)CCCC1 [ZINC001377717241] | 102%
70 | O=C(NCCc1ccc(F)c(Br)c1)[C@H]1C[C@H](F)CN1 [ZINC000188412270] | 106%
71 | CCN1CC[C@H](N(CC)C(=O)c2cccc(C(F)(F)F)n2)C1 [ZINC000617924178] | 126%
72 | COC(=O)[C@@]1(C)CCCN(C(=O)C(=O)N[C@@H](C)Cc2ccncc2)C1 [ZINC000422349618] | 129%
73 | O=C(NCC1CCN([C@H]2CCNC2=O)CC1)c1ccn(C(F)F)n1 [ZINC001001445660] | 92.1%
74 | N#CC1(c2ccccn2)CCN([C@@H]2Cc3ccccc3[C@@H]2O)CC1 [ZINC000369205980] | 112%
75 | C[C@@H]1COCC[C@@H]1NCCc1c[nH]c2cccc(Br)c12 [ZINC000289897491] | 51%
76 | Cc1cc(NC(=O)[C@H](C)N2CCC[C@@H]([C@H](C)O)C2)ccc1Br [ZINC000534109220] | 70.4%
77 | CC(C)NC1CCN(C(=O)Cn2cnc(C(N)=O)n2)CC1 [ZINC000996610565] | 114%
78 | C[C@H](COc1ccc(Cl)c(Cl)c1)N[C@@H](C)Cn1cncn1 [ZINC000296612417] | 59.2%
